Results on 7 molecules are retold here after patent US9187529B2 (priority 2011, dated 2015).

“And” between values parts separate entries of the source, which are not always exact repeats. Identical values can stand only once. Ends that are not written are not given here. Peptide text beside a SMILES is read from it.

For series [1] the following is noted: rabbit, in vivo.
For series [2], the system named is TSST-1 production of S. aureus MN8. It counts as cell-based, Staphylococcus aureus.
In the next series the test system is S. aureus MN8. The series is classed as cell-based, Staphylococcus aureus.

With `C[C@H](NC(=O)[C@H](CO)NC(=O)[C@H](CCCCN)NC(=O)[C@H](Cc1c[nH]cn1)NC(=O)[C@H](CO)NC(=O)[C@H](CCCCN)NC(=O)[C@H](CCCCN)NC(=O)[C@H](CCCCN)NC(=O)[C@H](Cc1c[nH]cn1)NC(=O)[C@@H]1CCCN1C(=O)[C@H](CCCCN)NC(=O)[C@H](Cc1ccc(O)cc1)NC(=O)[C@H](CCCCN)NC(=O)[C@H](CCCCN)NC(=O)[C@H](CCCCN)NC(=O)[C@H](CCCCN)NC(=O)[C@@H]1CCCN1C(=O)[C@H](CCCCN)NC(=O)[C@@H](N)CO)C(=O)N[C@@H](CCCCN)C(=O)N[C@@H](CCCCN)C(=O)N[C@@H](CCCCN)C(=O)O` [SP-1] (H-SKPKKKKYKPHKKKSHKSAKKK-OH), the “signs of inflammation and vaginal irritation” value in series [1] is recorded as “No irritation or inflammation was observed”.

Take SFPTTATYFPAFDLSAGSAQVA [SP-3]: in series [2], the “TSST-1 % of No Peptide Control” value is 100 % of No Peptide Control; the TSST-1 inhibition activity result was “lacked antimicrobial and TSST-1 inhibition activity”. Further, the antimicrobial activity entry in the series on S. aureus MN8 is “lacked antimicrobial”.

Regarding SFPTTKTYFPHFDLSHGSAQVK [Hbg-1], in the series on S. aureus MN8, the antimicrobial activity entry is “No antimicrobial activity was observed”; the “viable count (10^8 CFU/mL)” value is 20 and 22 and 17 and 21 and 19 and 25.

For the molecule “SFPTTKTYFPHFDLSHGSAQVK-agarose beads (not fully specified (C-terminus)) [Hbg-3]”, in series [2], the TSST-1 inhibition activity result is reported as “retained TSST-1 inhibition activity”. Also, in the series on S. aureus MN8, the antimicrobial activity entry is “not antimicrobial”; the “viable count (10^8 CFU/mL)” value was 21 and 22 and 16 and 20 and 23.

In the case of STKPFFYFLHTQVKASPTSHDG [Hbg-2], in series [2], the TSST-1 inhibition activity result is “comparably active as Hbg-1”. In the series with S. aureus MN8, the antimicrobial activity entry is given as “not antimicrobial”; the “viable count (10^8 CFU/mL)” value was 24 and 22 and 30 and 25 and 23.

Take “human neutrophil peptide-1 [HNP-1, reference compound]”: in series [2], the TSST-1 inhibition activity entry is recorded as “highly inhibitory of production of TSST-1” and the “dose (as low as) giving complete inhibition of TSST-1 production” value is reported as 10^−3 μg/mL. Also, in the series with S. aureus MN8, the antimicrobial activity result is given as “no antimicrobial activity was observed” and the “inhibition of MN8 growth” value is listed as “approximately 1 log”.

Turning to “human neutrophil peptide-2 (CYCRIPACIAGERRYGTCIYQGRLWAFCC; listed as Homo sapiens) [HNP-2, reference compound]”, in series [2], the TSST-1 inhibition activity entry is reported as “highly inhibitory of production of TSST-1” and the “dose (as low as) giving complete inhibition of TSST-1 production” value is reported as 10^−3 μg/mL. Moreover, in the series with S. aureus MN8, the antimicrobial activity entry is recorded as “no antimicrobial activity was observed” and the “inhibition of MN8 growth” value was “approximately 1 log”.
